Measurements as given in US20210228562A1, “IRAK DEGRADERS AND USES THEREOF” (Kymera Therapeutics, Inc., priority 2019, published 2021).

Biological target: T1, IRAK4 (Homo sapiens, UniProt Q9NWZ3)
T1 construct: endogenous in cells; host or cells: OCI-LY10
T1 sequence (Q9NWZ3 1-460): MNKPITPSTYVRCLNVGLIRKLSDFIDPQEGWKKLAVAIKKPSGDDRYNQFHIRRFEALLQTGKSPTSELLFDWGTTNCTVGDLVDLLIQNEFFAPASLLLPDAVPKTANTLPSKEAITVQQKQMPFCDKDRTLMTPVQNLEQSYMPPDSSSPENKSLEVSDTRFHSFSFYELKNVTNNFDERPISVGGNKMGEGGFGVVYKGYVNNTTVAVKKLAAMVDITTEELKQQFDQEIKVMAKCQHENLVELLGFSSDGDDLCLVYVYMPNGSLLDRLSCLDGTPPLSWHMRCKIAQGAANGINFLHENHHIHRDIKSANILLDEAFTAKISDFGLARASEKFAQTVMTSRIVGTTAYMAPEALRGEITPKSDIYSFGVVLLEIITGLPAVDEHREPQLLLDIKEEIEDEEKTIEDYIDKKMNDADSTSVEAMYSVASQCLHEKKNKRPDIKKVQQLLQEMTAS
Assay: IRAK4 MSD Degradation in OCI-LY10
Format: cell-based
Details: OCI-LY10 cells, 24 hrs incubation; read-out: IRAK4 degradation in OCI-LY10 at 24 hrs: DC50
Protocol: Degradation of IRAK4 in OCI-LY10 was quantitatively measured using Meso Scale Discovery technology. OCI-LY10 cells were seeded in 96-well plates (Corning 3799) with a density of 300,000 cells per well in 100 μL fresh media. Compounds were then added to the assay plates with a final top concentration of 1 to 10 μM in a 1:3 dilution series with total of 8 doses. The assay plates were then incubated for 4 to 24 hours at 37° C. under 5% CO2. The assay plates were then centrifuged for 5 minutes and the cell pellets were treated with 100 μL/well RIPA lysis buffer (Boston BioProducts BP-115D) with proteinase inhibitors. To prepare MSD assay plates (Meso Scale Discovery Catalog number L15XA-3), the plates were coated with 2 μg/mL capture antibody (mouse Anti-IRAK4 antibody [2H9], ab119942) in PBS, at 40 μL/well. The plates were then incubated overnight at 4° C., washed 3 times with 150 μL/well TBST buffer (Cell Signaling Technology, Catalog number 9997S) and blocked with 150 μL/well blocking buffer (Meso Scale Discovery Catalog number R93BA-4). Cell lysates were then added to MSD assay plates and the plates were incubated at room temperature for 1 hour. The plates were then washed 3 times with 150 μL/well TBST buffer and 25 μL/well primary detection antibody (rabbit Anti-IRAK4 antibody [Y279], from Abcam. Catalog number ab32511, 1 μg/mL). The assay plates were then incubated at room temperature for 1 hour, washed 3 times with 150 μL/well TBST buffer and 25 μL/well secondary detection antibody, SULFO-TAG anti-rabbit antibody were added (anti rabbit antibody from Meso Scale Discovery, Catalog number R32AB-1, 1 μg/mL). The assay plates were then incubated at room temperature for 1 hour, washed 3 times with 150 μL/well TBST buffer, and 150 μL/well MSD reading buffer (Meso Scale Discovery catalog number R92TC-2) was added. The plates were then analyzed by a MSD reader (Meso Scale Discovery, Model Quick Plex SQ 120). The data was then analyzed by software Prism 7.0 from GraphPad and the dose-depended IRAK4 degradation were fit using a three-parameter logistic equation to calculate DC50.

First: CC(C)(O)c1cc2nc([C@H]3CC[C@H](CN4CC5(CC(CCNc6cccc7c6C(=O)N(C6CCC(=O)NC6=O)C7=O)C5)C4)CC3)sc2cc1NC(=O)c1cccc(C(C)(F)F)c1 (some centres unmarked) [I-50]
Second: CC(C)(O)c1cc2nc([C@H]3CC[C@H](CN4CC5(CC(CCNc6cccc7c6C(=O)N(C6CCC(=O)NC6=O)C7=O)C5)C4)CC3)sc2cc1NC(=O)c1cccc(C(F)(F)F)c1 (some centres unmarked) [I-53]
The DC50 of the first is higher: 500 to 1000 nM for the first, 100 to 500 nM for the second.

First: CC(C)(O)c1cc2nc([C@H]3CC[C@H](CN4CC5(CC(CCNc6cccc7c6C(=O)N(C6CCC(=O)NC6=O)C7=O)C5)C4)CC3)sc2cc1NC(=O)c1ccnc(C(F)(F)F)n1 (some centres unmarked) [I-54]
Second: CC(C)(O)c1cc2nc([C@H]3CC[C@H](CN4CC5(CC(CCNc6cccc7c6C(=O)N(C6CCC(=O)NC6=O)C7=O)C5)C4)CC3)sc2cc1NC(=O)c1ccc(C(F)(F)F)nn1 (some centres unmarked) [I-55]
The DC50 of the first is lower: 100 to 500 nM for the first, greater than 1000 nM for the second.

`CC(C)(O)c1cc2nc([C@H]3CC[C@H](CN4CCC5(CC4)CC4(CC(CCNc6cccc7c6C(=O)N(C6CCC(=O)NC6=O)C7=O)C4)C5)CC3)sc2cc1NC(=O)c1cccc(C(F)(F)F)n1` (some centres unmarked) [I-59] gave a DC50 of 100 to 500 nM.

System: OCI-LY10 cells
Assay: CTG Cell Viability Assay - OCI-LY10
Format: cell-based
Details: Homo sapiens, 96 h, CellTiter-Glo, 4 days incubation
Protocol: Compound-mediated viability effect on OCI-LY10 or SUDHL-2 was quantitatively determined using the CellTiter-Glo® Luminescent Cell Viability Assay kit from Promega (Catalog number G7570) following manufacturer's recommended procedures. Briefly, OCI-LY10 or SUDHL-2 cells were seeded into 384 well plates (Grenier Bio-One, Catalog number 781080) with a density of 10,000 cells per well. Compounds were then added to the assay plate with final top concentration of 10 μM and 1:3 dilution series with total of 9 doses. The final DMSO concentration was normalized to 0.2%. The assay plates were incubated at 37° C. for 4 days under 5% CO2. Then the assay plate was equilibrated at room temperature for 10 minutes. To determine cell viability, 30 μL CellTiter Glo reagent was added to each well and the assay plate was centrifuged at 1000 rpm for 30 second, incubated at room temperature for 10 min, and analyzed by detecting the luminescence using a multimode plate reader (EnVision 2105, PerkinElmer). The data was then analyzed by software Prism 7.0 from GraphPad and the dose response curves were fit using a three-parameter logistic equation to calculate IC50.

`CC(C)(O)c1cc2nc([C@H]3CC[C@H](CN4CC5(CC(CCNc6cccc7c6C(=O)N(C6CCC(=O)NC6=O)C7=O)C5)C4)CC3)sc2cc1NC(=O)c1cccc(C(C)(F)F)c1` (some centres unmarked) [I-50] and `CC(C)(O)c1cc2nc([C@H]3CC[C@H](CN4CC5(CC(CCNc6cccc7c6C(=O)N(C6CCC(=O)NC6=O)C7=O)C5)C4)CC3)sc2cc1NC(=O)c1cccc(C(F)(F)F)c1` (some centres unmarked) [I-53] cannot be ordered by IC50: less than 50 nM for the first, less than 50 nM for the second.

`CC(C)(O)c1cc2nc([C@H]3CC[C@H](CN4CC5(CC(CCNc6cccc7c6C(=O)N(C6CCC(=O)NC6=O)C7=O)C5)C4)CC3)sc2cc1NC(=O)c1ccnc(C(F)(F)F)n1` (some centres unmarked) [I-54] and `CC(C)(O)c1cc2nc([C@H]3CC[C@H](CN4CC5(CC(CCNc6cccc7c6C(=O)N(C6CCC(=O)NC6=O)C7=O)C5)C4)CC3)sc2cc1NC(=O)c1ccc(C(F)(F)F)nn1` (some centres unmarked) [I-55] cannot be ordered by IC50: less than 50 nM for the first, less than 50 nM for the second.

With `CC(C)(O)c1cc2nc([C@H]3CC[C@H](CN4CCC5(CC4)CC4(CC(CCNc6cccc7c6C(=O)N(C6CCC(=O)NC6=O)C7=O)C4)C5)CC3)sc2cc1NC(=O)c1cccc(C(F)(F)F)n1` (some centres unmarked) [I-59] the IC50 was 100 to 500 nM.

Biological target: T2, Ikaros (protein product of gene IKZF1) (Homo sapiens, UniProt Q13422+Q96SW2)
T2 construct: endogenous in cells; host or cells: OCI-LY10
Assay: Quantification of Ikaros degradation in OCI-LY10 cells (quantitative immunoblotting)
Format: cell-based
Details: 6 h treatment
Protocol: (§1) Degradation of Ikaros (protein product of gene IKZF1) and Aiolos (protein product of gene IKZF3) were determined by quantitative immunoblotting as follows. OCI-LY10 cells, 2×10^6 cells/well, were treated with listed concentrations of IRAK4 degraders or control compounds in 6 well plates for 6 h. Cells were collected, washed with cold PBS, lysed in RIPA buffer (Boston BioProducts BP-115D) with protease/phosphatase inhibitor cocktail (Roche 05892791001/Roche 04906837001) and centrifuged at 13000 RPM for 20 min to precipitate insoluble material. The supernatant fraction was diluted in SDS-PAGE loading buffer (Beyotime Bio P0015) and 20 μL of each sample was resolved on 4-12% Bis-Tris SDS-PAGE gels (Novex, WG1402BOX). Resolved samples were transferred to nitrocellulose membranes by wet electro-transfer method at 250 mV for 1.5 h. The membrane was blocked with LICOR blocking buffer (LI-COR, 927-50000) for 1 hour, washed three times with TBST (CST #99975) for 5 minutes each and incubated with primary antibody prepared in block buffer with 0.1% Tween-20 (Solarbio, P8220) at 4° C. overnight. Ikaros antibody was rabbit monoclonal D6N9Y (CST #14859), at 1:1000 dilution. Aiolos antibody was rabbit monoclonal D1C1E (CST #15103), at 1:1000 dilution. Signal was normalized to mouse anti-beta-Actin monoclonal 8H10D10 (CST #3700) used at 1:10,000 dilution. After incubation in primary antibodies, membranes were washed three times with TBST, 5 minutes each, incubated with fluorescently labeled secondary antibodies anti-rabbit IgG (Licor, 926-32211) at 1:5000 dilution; anti-mouse IgG (LI-COR, 926-68070) at 1:5000 dilution, for 1 hour at RT. After incubation in secondary, membranes were washed three times with TBST, 5 minutes each and read on LICOR Odyssey imager. Data was reported as signal for Ikaros or Aiolos relative to signal for actin, and normalized to DMSO-treated control.

T2 sequence (Q13422 whole entry): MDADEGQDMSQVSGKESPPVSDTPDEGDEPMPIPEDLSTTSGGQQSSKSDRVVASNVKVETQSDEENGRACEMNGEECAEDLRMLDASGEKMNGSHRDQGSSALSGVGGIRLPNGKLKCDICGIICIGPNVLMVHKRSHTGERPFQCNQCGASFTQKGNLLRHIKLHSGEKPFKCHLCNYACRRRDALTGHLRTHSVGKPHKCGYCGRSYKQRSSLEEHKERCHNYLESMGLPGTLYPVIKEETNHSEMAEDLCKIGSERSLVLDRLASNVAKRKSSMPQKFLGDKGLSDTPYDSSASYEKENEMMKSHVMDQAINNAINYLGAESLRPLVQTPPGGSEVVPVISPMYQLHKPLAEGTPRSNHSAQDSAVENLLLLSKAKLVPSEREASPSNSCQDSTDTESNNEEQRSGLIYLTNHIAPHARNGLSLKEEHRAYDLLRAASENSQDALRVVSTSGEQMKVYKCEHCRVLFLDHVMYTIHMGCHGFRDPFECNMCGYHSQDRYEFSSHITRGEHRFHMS
T2 sequence (Q96SW2 whole entry): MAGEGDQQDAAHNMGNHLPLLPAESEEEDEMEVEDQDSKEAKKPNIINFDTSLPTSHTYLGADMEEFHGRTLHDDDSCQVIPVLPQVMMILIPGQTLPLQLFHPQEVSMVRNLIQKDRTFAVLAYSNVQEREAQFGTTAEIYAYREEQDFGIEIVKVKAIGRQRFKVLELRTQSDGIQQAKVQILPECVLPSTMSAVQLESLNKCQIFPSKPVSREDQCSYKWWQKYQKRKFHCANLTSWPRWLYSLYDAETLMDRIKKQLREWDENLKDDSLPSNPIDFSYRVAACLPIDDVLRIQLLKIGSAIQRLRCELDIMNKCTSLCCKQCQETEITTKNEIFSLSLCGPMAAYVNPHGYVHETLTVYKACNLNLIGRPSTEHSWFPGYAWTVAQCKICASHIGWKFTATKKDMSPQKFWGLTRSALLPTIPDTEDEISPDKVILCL
T2 sequence (Q16531 whole entry partner): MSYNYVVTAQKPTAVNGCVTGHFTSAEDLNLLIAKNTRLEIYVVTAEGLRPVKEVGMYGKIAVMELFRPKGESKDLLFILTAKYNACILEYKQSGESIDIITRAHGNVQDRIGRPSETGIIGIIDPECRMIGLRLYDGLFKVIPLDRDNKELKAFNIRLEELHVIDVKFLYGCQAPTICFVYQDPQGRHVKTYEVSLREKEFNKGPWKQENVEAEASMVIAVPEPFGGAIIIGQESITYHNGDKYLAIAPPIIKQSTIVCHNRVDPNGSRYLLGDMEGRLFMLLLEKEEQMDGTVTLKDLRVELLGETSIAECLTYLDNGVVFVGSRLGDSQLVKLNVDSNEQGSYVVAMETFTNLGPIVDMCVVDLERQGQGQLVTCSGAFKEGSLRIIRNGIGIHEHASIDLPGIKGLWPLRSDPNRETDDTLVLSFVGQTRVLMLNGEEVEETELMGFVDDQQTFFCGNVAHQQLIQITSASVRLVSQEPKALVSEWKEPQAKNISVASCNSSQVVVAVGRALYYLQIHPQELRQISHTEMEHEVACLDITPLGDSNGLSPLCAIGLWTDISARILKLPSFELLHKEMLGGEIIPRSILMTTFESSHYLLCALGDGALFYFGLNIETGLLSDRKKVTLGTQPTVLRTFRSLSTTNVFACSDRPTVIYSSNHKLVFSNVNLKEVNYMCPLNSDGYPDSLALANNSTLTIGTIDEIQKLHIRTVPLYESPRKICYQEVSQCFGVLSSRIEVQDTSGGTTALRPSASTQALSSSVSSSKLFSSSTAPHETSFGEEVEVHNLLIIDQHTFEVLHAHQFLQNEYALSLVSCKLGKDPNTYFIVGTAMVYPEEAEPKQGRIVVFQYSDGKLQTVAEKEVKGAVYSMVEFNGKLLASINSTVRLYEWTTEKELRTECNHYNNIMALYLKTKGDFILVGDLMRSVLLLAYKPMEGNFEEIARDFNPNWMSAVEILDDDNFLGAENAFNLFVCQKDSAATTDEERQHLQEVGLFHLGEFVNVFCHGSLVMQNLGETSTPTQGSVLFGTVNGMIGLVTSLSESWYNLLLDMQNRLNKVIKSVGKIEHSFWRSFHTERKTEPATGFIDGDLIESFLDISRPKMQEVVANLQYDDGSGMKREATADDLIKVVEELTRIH

`CC(C)(O)c1cc2nc([C@H]3CC[C@H](CN4CC5(CC(CCNc6cccc7c6C(=O)N(C6CCC(=O)NC6=O)C7=O)C5)C4)CC3)sc2cc1NC(=O)c1cccc(C(C)(F)F)c1` (some centres unmarked) [I-50] and `CC(C)(O)c1cc2nc([C@H]3CC[C@H](CN4CC5(CC(CCNc6cccc7c6C(=O)N(C6CCC(=O)NC6=O)C7=O)C5)C4)CC3)sc2cc1NC(=O)c1cccc(C(F)(F)F)c1` (some centres unmarked) [I-53] cannot be ordered by DC50: less than 50 nM for the first, less than 50 nM for the second.

`CC(C)(O)c1cc2nc([C@H]3CC[C@H](CN4CC5(CC(CCNc6cccc7c6C(=O)N(C6CCC(=O)NC6=O)C7=O)C5)C4)CC3)sc2cc1NC(=O)c1ccnc(C(F)(F)F)n1` (some centres unmarked) [I-54] and `CC(C)(O)c1cc2nc([C@H]3CC[C@H](CN4CC5(CC(CCNc6cccc7c6C(=O)N(C6CCC(=O)NC6=O)C7=O)C5)C4)CC3)sc2cc1NC(=O)c1ccc(C(F)(F)F)nn1` (some centres unmarked) [I-55] cannot be ordered by DC50: less than 50 nM for the first, less than 50 nM for the second.

In the case of `CC(C)(O)c1cc2nc([C@H]3CC[C@H](CN4CCC5(CC4)CC4(CC(CCNc6cccc7c6C(=O)N(C6CCC(=O)NC6=O)C7=O)C4)C5)CC3)sc2cc1NC(=O)c1cccc(C(F)(F)F)n1` (some centres unmarked) [I-59], the DC50 is reported as 100 to 500 nM.

Biological target: T3, Aiolos (protein product of gene IKZF3) (Homo sapiens, UniProt Q96SW2+Q9UKT9)
T3 construct: endogenous in cells; host or cells: OCI-LY10
Assay: Quantification of Aiolos degradation in OCI-LY10 cells (quantitative immunoblotting)
Format: cell-based
Details: 6 h treatment
Protocol: as §1

T3 sequence (Q9UKT9 whole entry): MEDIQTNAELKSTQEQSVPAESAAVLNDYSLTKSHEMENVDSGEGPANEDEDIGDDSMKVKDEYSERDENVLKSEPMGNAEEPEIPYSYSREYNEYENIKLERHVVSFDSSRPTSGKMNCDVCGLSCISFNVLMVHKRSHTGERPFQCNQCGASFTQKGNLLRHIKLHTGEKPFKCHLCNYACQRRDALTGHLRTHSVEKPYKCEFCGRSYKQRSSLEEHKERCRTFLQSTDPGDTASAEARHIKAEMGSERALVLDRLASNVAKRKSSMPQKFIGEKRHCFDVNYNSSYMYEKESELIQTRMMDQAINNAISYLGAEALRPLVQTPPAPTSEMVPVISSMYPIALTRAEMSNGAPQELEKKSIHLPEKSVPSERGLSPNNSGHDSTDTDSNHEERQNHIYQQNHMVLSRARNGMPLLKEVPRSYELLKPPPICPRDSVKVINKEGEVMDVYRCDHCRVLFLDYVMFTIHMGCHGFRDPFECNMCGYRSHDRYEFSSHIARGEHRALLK
T3 sequence (Q96SW2 whole entry): as the sequence (Q96SW2 whole entry) above
T3 sequence (Q16531 whole entry partner): as the sequence (Q16531 whole entry partner) above

`CC(C)(O)c1cc2nc([C@H]3CC[C@H](CN4CC5(CC(CCNc6cccc7c6C(=O)N(C6CCC(=O)NC6=O)C7=O)C5)C4)CC3)sc2cc1NC(=O)c1cccc(C(C)(F)F)c1` (some centres unmarked) [I-50] and `CC(C)(O)c1cc2nc([C@H]3CC[C@H](CN4CC5(CC(CCNc6cccc7c6C(=O)N(C6CCC(=O)NC6=O)C7=O)C5)C4)CC3)sc2cc1NC(=O)c1cccc(C(F)(F)F)c1` (some centres unmarked) [I-53] cannot be ordered by DC50: less than 50 nM for the first, less than 50 nM for the second.

`CC(C)(O)c1cc2nc([C@H]3CC[C@H](CN4CC5(CC(CCNc6cccc7c6C(=O)N(C6CCC(=O)NC6=O)C7=O)C5)C4)CC3)sc2cc1NC(=O)c1ccnc(C(F)(F)F)n1` (some centres unmarked) [I-54] and `CC(C)(O)c1cc2nc([C@H]3CC[C@H](CN4CC5(CC(CCNc6cccc7c6C(=O)N(C6CCC(=O)NC6=O)C7=O)C5)C4)CC3)sc2cc1NC(=O)c1ccc(C(F)(F)F)nn1` (some centres unmarked) [I-55] cannot be ordered by DC50: less than 50 nM for the first, less than 50 nM for the second.

With `CC(C)(O)c1cc2nc([C@H]3CC[C@H](CN4CCC5(CC4)CC4(CC(CCNc6cccc7c6C(=O)N(C6CCC(=O)NC6=O)C7=O)C4)C5)CC3)sc2cc1NC(=O)c1cccc(C(F)(F)F)n1` (some centres unmarked) [I-59] the DC50 was 100 to 500 nM.
